Reference: PubChem BioAssay AID330 (DTP/NCI, 2004)
“And” between values parts separate entries of the source, which are not always exact repeats. Identical values can stand only once. Inconclusive results and toxic doses are left out.

Test system: P388 leukemia ip, CD2F1 mice, survival T/C
Assay: NCI In Vivo Anticancer Drug Screen. Data for tumor model P388 Leukemia (intraperitoneal) in CD2F1 (CDF1) mice
Conditions: endpoint: median survival time, higher = longer survival
Procedure, shortened: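 Mice carrying the transplanted tumor received test compound or vehicle. Survival was recorded in each group, and the value is the treated-group measurement divided by that of the vehicle-treated control group.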

[1] = dose: 50.0 mg/kg/injection, schedule: Q01DX005 (ip), vehicle: saline with Tween-80
[2] = dose: 100.0 mg/kg/injection, schedule: Q01DX005 (ip), vehicle: saline with Tween-80
[3] = dose: 200.0 mg/kg/injection, schedule: Q01DX005 (ip), vehicle: saline with Tween-80

Question: How did the T/C (dose: 6.25 mg/kg/injection, schedule: Q01DX005 (ip), vehicle: saline) turn out when `O=C(CCCCC(=O)Nc1cc(C2=NCCN2)cc(C2N=CCN2)c1)Nc1cc(C2=NCCN2)cc(C2=NCCN2)c1` (stereo unspecified) was run?
Answer: 104 % of control

Question: Which T/C (dose: 12.5 mg/kg/injection, schedule: Q01DX005 (ip), vehicle: saline + alcohol) does the source give for `CC1=CC[C@@H](Br)C(C)(C)[C@]12CC[C@]1(C)O[C@@H]1C2` here?
Answer: 110 % of control

Question: And the T/C (dose: 25.0 mg/kg/injection, schedule: Q01DX005 (ip), vehicle: saline + alcohol)?
Answer: 110 % of control

Question: What about the T/C (dose: 50.0 mg/kg/injection, schedule: Q01DX005 (ip), vehicle: saline + alcohol) of the same molecule?
Answer: 105 % of control

Question: And the T/C (dose: 100.0 mg/kg/injection, schedule: Q01DX005 (ip), vehicle: saline + alcohol)?
Answer: 105 % of control

Question: Which T/C [1] does the source give for `CC(C)=C[C@@H]1c2c(c3ccccc3n(C)c2=O)O[C@H]2c3c(c4ccccc4n(C)c3=O)OC(C)(C)[C@@H]12` here?
Answer: 99 % of control

Question: And the T/C [2]?
Answer: 100 % of control

Question: What about the T/C [3] of the same molecule?
Answer: 100 % of control

Question: For `CCOc1ccc(C(C)c2cc3c(cc2OCC)OCO3)cc1` (stereo unspecified), which T/C (dose: 25.0 mg/kg/injection, schedule: Q01DX005 (ip), vehicle: saline with Tween-80) is on record?
Answer: 120 % of control

Question: What about the T/C [3] of the same molecule?
Answer: 157 % of control

Question: What does the source list for `Cc1nn(-c2ccccn2)c2ncnc(N)c12`?
Answer: T/C [1]: 95 % of control; T/C [2]: 101 % of control; T/C [3]: 95 % of control

Question: For `Cc1cc(Cl)c2cc3c(cc2n1)OCO3`, which T/C (dose: 50.0 mg/kg/injection, schedule: Q01DX005 (ip), vehicle: Klucel (hydroxypropylcellulose) (HPC)) is on record?
Answer: 106 % of control

Question: And the T/C (dose: 100.0 mg/kg/injection, schedule: Q01DX005 (ip), vehicle: Klucel (hydroxypropylcellulose) (HPC))?
Answer: 104 % of control

Question: What about the T/C (dose: 200.0 mg/kg/injection, schedule: Q01DX005 (ip), vehicle: Klucel (hydroxypropylcellulose) (HPC)) of the same molecule?
Answer: 98 % of control

Question: With `C/C(=N\NC(=O)c1ccccc1O)c1cccc(/C(C)=N/NC(=O)c2ccccc2O)n1` as the molecule, how does the T/C (dose: 3.12 mg/kg/injection, schedule: Q01DX009 (ip), vehicle: saline) read?
Answer: 110 % of control

Question: And the T/C (dose: 6.25 mg/kg/injection, schedule: Q01DX009 (ip), vehicle: saline)?
Answer: 114 % of control

Question: What does the source list for `C=CCCOC1CCCCO1` (stereo unspecified)?
Answer: T/C (dose: 50.0 mg/kg/injection, schedule: Q01DX009 (ip), vehicle: other): 104 % of control; T/C (dose: 100.0 mg/kg/injection, schedule: Q01DX009 (ip), vehicle: other): 104 % of control; T/C (dose: 200.0 mg/kg/injection, schedule: Q01DX009 (ip), vehicle: other): 100 % of control

Question: What does the source list for `COc1cc([N+](=O)[O-])cc2cc(C)c(=O)oc12`?
Answer: T/C (dose: 50.0 mg/kg/injection, schedule: Q01DX009 (ip), vehicle: saline with Tween-80): 99 % of control; T/C (dose: 100.0 mg/kg/injection, schedule: Q01DX009 (ip), vehicle: saline with Tween-80): 91 % of control; T/C (dose: 200.0 mg/kg/injection, schedule: Q01DX009 (ip), vehicle: saline with Tween-80): 91 % of control

Question: Which T/C (dose: 25.0 mg/kg/injection, schedule: Q01DX001 (ip), vehicle: saline) does the source give for `CCCC(=O)N(CCC(N)=O)c1ncc([N+](=O)[O-])s1` here?
Answer: 94 % of control

Question: What about the T/C (dose: 50.0 mg/kg/injection, schedule: Q01DX001 (ip), vehicle: saline) of the same molecule?
Answer: 100 % of control

Question: And the T/C (dose: 100.0 mg/kg/injection, schedule: Q01DX001 (ip), vehicle: saline)?
Answer: 100 % of control

Question: For `O=[N+]([O-])c1ccccc1OCC1CO1` (stereo unspecified), which T/C (dose: 25.0 mg/kg/injection, schedule: Q01DX009 (ip), vehicle: Klucel (hydroxypropylcellulose) (HPC)) is on record?
Answer: 106 % of control

Question: And the T/C (dose: 50.0 mg/kg/injection, schedule: Q01DX009 (ip), vehicle: Klucel (hydroxypropylcellulose) (HPC))?
Answer: 105 % of control

Question: What about the T/C (dose: 100.0 mg/kg/injection, schedule: Q01DX009 (ip), vehicle: Klucel (hydroxypropylcellulose) (HPC)) of the same molecule?
Answer: 105 % of control

Question: Which T/C (dose: 1.56 mg/kg/injection, schedule: Q01DX009 (ip), vehicle: water) does the source give for `COc1c2c(c(OC)c3c1C(=O)c1ccccc1C3=O)CC=CC2` here?
Answer: 101 % of control

Question: And the T/C (dose: 3.13 mg/kg/injection, schedule: Q01DX009 (ip), vehicle: water)?
Answer: 104 % of control

Question: And the T/C (dose: 6.25 mg/kg/injection, schedule: Q01DX009 (ip), vehicle: water)?
Answer: 103 % of control

Question: What about the T/C (dose: 12.5 mg/kg/injection, schedule: Q01DX009 (ip), vehicle: water) of the same molecule?
Answer: 103 % of control

Question: What about the T/C (dose: 25.0 mg/kg/injection, schedule: Q01DX009 (ip), vehicle: water) of the same molecule?
Answer: 100 % of control

Question: With `CCN(CC)CCCC(C)Nc1c(C)cnc2cc(Cl)ccc12` (stereo unspecified) as the molecule, how does the T/C (dose: 50.0 mg/kg/injection, schedule: Q01DX005 (ip), vehicle: saline) read?
Answer: 98 % of control

Question: What about the T/C (dose: 100.0 mg/kg/injection, schedule: Q01DX005 (ip), vehicle: saline) of the same molecule?
Answer: 108 % of control

Question: Which results are given for `COc1ccc2c(c1)CCC1C2=CCC2C(=O)OC(=O)C21C` (stereo unspecified)?
Answer: T/C [1]: 103 % of control; T/C [2]: 108 % of control

Question: Which T/C (dose: 60.0 mg/kg/injection, schedule: Q01DX005 (ip), vehicle: saline with Tween-80) does the source give for `CCOC(=O)C1=C(C(=O)c2ccc(C)cc2)C(c2cccc([N+](=O)[O-])c2)C(C(=O)c2ccc(C)cc2)=C(C(=O)OCC)N1` here?
Answer: 103 % of control

Question: What about the T/C (dose: 120.0 mg/kg/injection, schedule: Q01DX005 (ip), vehicle: saline with Tween-80) of the same molecule?
Answer: 93 % of control

Question: And the T/C (dose: 240.0 mg/kg/injection, schedule: Q01DX005 (ip), vehicle: saline with Tween-80)?
Answer: 111 % of control

Question: With `C=C1CC2C3CCC=C3C(c3ccc(OC)cc3)C2C1=O` (stereo unspecified) as the molecule, how does the T/C (dose: 25.0 mg/kg/injection, schedule: Q01DX001 (ip), vehicle: Klucel (hydroxypropylcellulose) (HPC)) read?
Answer: 112 % of control

Question: And the T/C (dose: 50.0 mg/kg/injection, schedule: Q01DX001 (ip), vehicle: Klucel (hydroxypropylcellulose) (HPC))?
Answer: 109 % of control

Question: And the T/C (dose: 100.0 mg/kg/injection, schedule: Q01DX001 (ip), vehicle: Klucel (hydroxypropylcellulose) (HPC))?
Answer: 107 % of control and 111 % of control

Question: And the T/C (dose: 200.0 mg/kg/injection, schedule: Q01DX001 (ip), vehicle: Klucel (hydroxypropylcellulose) (HPC))?
Answer: 106 % of control
